Laboratory results taken from US20220016168A1, “METHODS OF USING CD27 ANTIBODIES AS CONDITIONING TREATMENT FOR ADOPTIVE CELL THERAPY” (Celldex Therapeutics, Inc., priority 2018, published 2022).

Key:
[1] = test system: WBC subpopulations; test: Total and differential WBC counts and Treg recovery after conditioning treatment; type: in vivo, mice
[2] = target: T1, w.t. CD27 extracellular domain fragment (Homo sapiens, UniProt P26842); test: ELISA binding to w.t. CD27 fragment; details: serially diluted supernatants
T1 construct: made in house; culture supernatant used
T1 sequence (P26842 21-130): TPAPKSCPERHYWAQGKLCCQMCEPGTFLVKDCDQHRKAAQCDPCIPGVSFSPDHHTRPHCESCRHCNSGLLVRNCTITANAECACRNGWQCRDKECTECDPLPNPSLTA
Source text: CD27 extracellular domain spanning amino acid residue 1-110 w.t. sequence and R87A mutation sequence according to Kabat numbering were cloned into an expression vector fused with a human kappa chain in the N-terminus and a flag-tag in the C-terminus. The CD27 fragments were expressed by transient transfection and quantified by an ELISA measuring concentration of human kappa chain in the culture supernatant.

[3] = test system: CD8 T cells; test: Ki-67 proliferation of donor and recipient CD8 T cells after varlilumab; type: in vivo, mice; details: spleen, varlilumab pretreatment
Source text: (§1) CD8 T cells on day 0. Spleens and pLNs were collected on day 14 and processed for flow cytometry analysis. […] CD8, CD4 and Treg cell counts per μl blood were depicted in FIG. 11C (n=6 mice per group).
Percentage of ki-67^+ in gated donor origin or recipient origin CD8 T cells in the spleen of the same mice as in FIGS. 11A and 11B were depicted in FIG. 12A. Percentages of Ki-67^+ cells in gated CD8 T cells in the spleen and pLNs of the same mice as in FIG. 11C were depicted in FIG. 12B.

[4] = target: T2, human CD70-Fc binding to CD27 on CD4+CD25+ Treg cells (Homo sapiens, UniProt P26842); test: hCD70-Fc staining on hCD27+/+mCD27-/- splenocytes preincubated with Ab (ligand blocking); details: 10 μg Ab 30 minutes on ice, vs hIgG1 isotype control
T2 construct: from tissue; host or cells: splenocytes from hCD27+/+ mCD27-/- transgenic mice
T2 sequence (P26842 20-260): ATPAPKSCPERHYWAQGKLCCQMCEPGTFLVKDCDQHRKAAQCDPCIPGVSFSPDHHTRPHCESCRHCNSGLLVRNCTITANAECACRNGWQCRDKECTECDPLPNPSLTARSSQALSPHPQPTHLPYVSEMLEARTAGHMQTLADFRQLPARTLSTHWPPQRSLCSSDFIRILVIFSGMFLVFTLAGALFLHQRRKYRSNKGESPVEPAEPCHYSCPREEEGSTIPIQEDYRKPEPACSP
Method: Splenocytes from hCD27^+/+mCD27^−/− mice were incubated with 10 μg Ab as indicated for 30 minutes on ice and then stained with a fluorescently labeled human CD70-Fc fusion protein (0.5 μg) and Abs for cell surface markers. Shown is a histogram of hCD70-Fc staining on gated CD4^+CD25^+ Treg cells.

[5] = test system: E.G7 cells; test: E.G7 tumor model with OT-I T-cell adoptive therapy; type: in vivo, mice
[6] = test system: CD8, CD4 T-cells and Treg (CD4+Foxp3+); test: T-cell depletion in spleen and pLNs of human CD27 transgenic mice (flow cytometry); type: in vivo
Source text: Spleens and pLNs were collected 7 days later and processed for flow cytometry analysis.
The same preparations of splenocytes and pLNs cells as in Example 1 were stained for CD8, CD4 and Foxp3.

[7] = test system: donor origin CD8 T-cells; test: In vivo expansion of adoptively transferred donor T-cells in pretreated recipient mice; details: for donor CD8 T-cell expansion: 14 days post transfusion
[8] = test system: recipient CD3 T-cells; test: Recipient T-cell depletion after CD27 Ab pretreatment (flow cytometry); type: in vivo, mice; details: for recipient CD3 T-cell counts on day 0: compared to isotype control
Method: Spleens and pLNs were collected from one set of mice on day 0 without cell transfusion and from another set of mice 14 days post intravenous (i.v.) transfusion with 2×10^6 CFSE-labeled w.t. CD8 T-cells for the assessment of recipient cell depletion (FIG. 4A) and donor cell expansion (FIG. 4B). Percentages of recipient CD3 T-cells (CD45.1^+CD45.2^−CD3^+) and donor origin CD8 T-cells (CD45.1^−CD45.2^+CD3^+CD8^+) out of total live cells in spleens and pLNs were determined by flow cytometry and the absolute numbers of donor origin cells were calculated based on total cell counts of spleens and pLNs.
These mice were bled and then transfused with 2×10^6 CD8 T-cells on day 0. Shown are the percentages of donor origin cells out of total live cells in the spleen and pLNs after 14 days of in vivo expansion (FIG. 10A) and the percentages of CD3 T cells in recipients' blood on day 0 before transfusion (FIG. 10B). Data are from one representative experiment of two performed, n=5 mice per group, *p<0.05, **p<0.01, ***p<0.001 indicating statistical significance compared to isotype control or between groups as specified by the horizontal line.
as §1

Substance: varlilumab: fully human monoclonal IgG1 antibody binding CD27; heavy/light chains SEQ ID NO: 68 and 69
- percentage of Treg cells out of total live cells in blood, spleen and pLNs on day 14 ([1]; 14 days post cell transfer): remains low
- total and differential counts of WBC per μl blood on day of adoptive transfer (day 0) ([1]; varlilumab 300 μg day -14 and -2, Cy 1 mg and Flu 0.1 mg day -4, -3, -2, hCD27+/+mCD27-/- mice): only depletes T-cells with the most reduction in Treg population and does not attack myeloid cells, B-cells and NK cells
- binding to w.t. CD27 fragment (OD450) [2]: recognizes w.t. CD27
- CD8 T-cell proliferation (Ki-67+) donor origin vs recipient origin cells ([3]; hCD27+/+mCD27-/- mice): significantly higher in donor origin cells
- CD8 T-cell proliferation (Ki-67+) donor origin vs recipient origin cells ([3]; hCD27+/+mCD27wt mice): no difference
- hCD70-Fc staining on gated CD4+CD25+ Treg cells (ligand blocking) [4]: no hCD70 binding detected
- conditioning effect of one delayed dose alone ([5]; 300 μg day 14 only, OT-I day 16, survival): no conditioning effect by itself
- antitumor efficacy of varlilumab pretreatment followed by OT-I T-cell transfer ([5]; 300 μg day -2 and 5, OT-I day 7, tumor growth and survival): stronger antitumor efficacy than varlilumab alone
- antitumor efficacy of OT-I T-cells compared to hIgG1 isotype control ([5]; delayed therapy: 300 μg day 6 and 14, OT-I day 16): enhances antitumor efficacy of OT-I T-cells
- OT-I T-cells antitumor activity compared to hIgG1 control ([5]; varlilumab 300 μg day 7 and 14, or Cy 1 mg and Flu 0.1 mg day 13 and 14, OT-I day 16): facilitates OT-I T-cells antitumor activity
- effect of one delayed dose combined with Cy and Flu on OT-I T-cells antitumor activity ([5]; varlilumab 300 μg day 14 plus Cy 1 mg and Flu 0.1 mg day 13 and 14, survival): synergizes
- percentage and absolute numbers of Treg in peripheral lymph organs ([6]; 0.2 mg i.p., 7 days, spleen and pLNs, vs isotype control): reduced
- total T-cells (CD8 and CD4), percentage out of total live cells and absolute numbers ([6]; 0.2 mg i.p., spleens and pLNs 7 days later, hCD27+/-mCD27wt mice, vs isotype control): reduced
- pattern of T-cell deletion among T-cell subsets ([6]; Examples 1 and 2 together): preferentially on Treg and secondarily on CD4-Th, while the least reduction is on CD8 T-cells
- percentage of donor-origin CD8 T-cells out of total live cells, time course ([7]; 200 μg day -7 and -2, spleens and pLNs day 7, 14 and 21, vs hIgG1): long-lasting accumulation of donor-origin CD8 T-cells
- transferred cell expansion in recipients lacking CD27 signaling ([7]; 200 μg days -7 and -2, hCD27+/+mCD27-/- recipients, day 14): remarkable transferred cell expansion
- expansion of transfused CD8 T-cells compared to 2C2 or varlimut ([7]; 300 μg days -14 and -2, hCD27+/+mCD27-/- mice, 14 days): greater expansion of transfused CD8 T-cells
- donor CD8 T-cell expansion ([7]; 300 μg i.p. on day -2 only): minimal expansion
- donor CD8 T-cell expansion ([7]; 300 μg i.p. on day -14 and -2, hCD27+/+mCD27-/- mice): greatest expansion
- donor CD8 T-cell expansion ([7]; 300 μg i.p. on day -14 only): median level of expansion
- donor cell expansion (donor origin CD8 T-cells in blood, spleen and pLNs) ([7]; Example 14 regimens, day 14, Cy and Flu vs control mice, varlilumab vs Cy and Flu): further increased
- CFSE dilution in donor-origin CD8 T-cells ([7]; pretreatment day -14 and -2, vs hIgG1): enhanced proliferation
- T cell reduction in the two strains of recipients (CD8, CD4 and Treg counts per μl blood) ([8]; 300 μg day 0, blood 14 days later, hCD27+/+mCD27-/- vs hCD27+/+mCD27wt): same extent of T cell reduction
- recipient CD3 T-cell counts on day 0 ([8]; 1 dose on day -14): reduced to the same extent
- recipient CD3 T-cell counts on day 0 ([8]; 2 doses on day -14 and -2): reduced to the same extent
- recipient CD3 T-cell counts on day 0 ([8]; Ab on day -2 only): no significant reduction
- recipient CD3 T-cell counts by day 14 compared to day 0 ([8]; Ab on day -14 only): remained the same
- recipient CD3 T-cell counts by day 14 compared to day 0 ([8]; varlilumab on day -2 only): further decreased
- recipient CD3 T-cell counts by day 14 compared to day 0 ([8]; varlilumab on day -14 and -2): further decreased
